Reference: patent US12428406B2 (PMV Pharmaceuticals, Inc., priority 2019, dated 2025)

Each compound was assayed against T1, p53 Y220C (Homo sapiens, UniProt P04637, Y220C) (assay: In vitro DNA binding activity assay (HTRF / TR-FRET): stabilization of p53 Y220C and increase of its DNA binding activity). Settings: recombinant His-tagged p53 Y220C DNA binding domain (aa 94-312), biotin-labeled consensus DNA, incubated at 27° C. or 29° C. for 60 min.
T1 construct: The recombinant protein was a truncation mutant containing only amino acids 94-312 of p53; made in house; host or cells: E. coli
Assay type: biochemical
Outline: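 Test compounds, diluted 3-fold in DMSO from 4.5 mM stocks, were incubated with bacterially expressed His-tagged p53 Y220C at room temperature for 15 min, and after a further step for 20 min. DNA binding was detected by time-resolved FRET between APC and europium labels. SC150 marks the concentration increasing binding by 50%.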

T1 sequence (P04637 94-312, change not shown): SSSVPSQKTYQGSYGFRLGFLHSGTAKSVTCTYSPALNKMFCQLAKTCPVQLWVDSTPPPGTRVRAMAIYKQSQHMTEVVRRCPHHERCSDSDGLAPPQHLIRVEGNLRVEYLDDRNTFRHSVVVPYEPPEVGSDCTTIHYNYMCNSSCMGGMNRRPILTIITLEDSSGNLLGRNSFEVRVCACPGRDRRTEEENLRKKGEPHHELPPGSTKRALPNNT

Row | SMILES | SC150 (concentration of the compound required to increase the DNA binding activity by 50%)
1 | COc1cc(S(C)(=O)=O)ccc1NCC#Cc1cc2c(NC3CCC4(CC3)OCCO4)cccc2n1CC(F)(F)F [Compound 64A, N-{1,4-dioxaspiro[4.5]decan-8-yl}-2-{3-[(4-methane-sulfonyl-2-methoxy-phenyl)amino]prop-1-yn-1-yl}-1-(2,2,2-trifluoroethyl)-1H-indol-4-amine] | + (+ = 0 μM ≤ SC150 < 0.05 μM)
2 | CS(=O)(=O)c1ccc(NCC#Cc2cc3c(NC4CCOCC4)cccc3n2CC(F)(F)F)c(OC(F)(F)F)c1 [Compound 991A, 2-(3-{[4-methanesulfonyl-2-(trifluoromethoxy)phenyl]amino}prop-1-yn-1-yl)-N-(oxan-4-yl)-1-(2,2,2-trifluoroethyl)-1H-indol-4-amine] | + (+ = 0 μM ≤ SC150 < 0.05 μM)
3 | COc1cc(S(C)(=O)=O)ccc1NCC#Cc1cc2c(N[C@H]3CCN(C(C)=O)[C@@H](C)C3)cccc2n1CC(F)(F)F (stereo in doubt) [Compound 739A, 1-{4-[(2-{3-[(4-methanesulfonyl-2-methoxyphenyl)amino]prop-1-yn-1-yl}-1-(2,2,2-trifluoroethyl)-1H-indol-4-yl)amino]-2-methylpiperidin-1-yl}ethan-1-one] | + (+ = 0 μM ≤ SC150 < 0.05 μM)
4 | CC(=O)Nc1cc(S(C)(=O)=O)ccc1OCC#Cc1cc2c(N[C@H]3CC[C@H](N(C)C)CC3)cccc2n1CC(F)(F)F [Compound 115A, N-(5-methanesulfonyl-2-{[3-(4-{[(1R,4R)-4-(dimethylamino)cyclohexyl]amino}-1-(2,2,2-trifluoro-ethyl)-1H-indol-2-yl)prop-2-yn-1-yl]oxy}phenyl)acetamide] | ++ (++ = 0.05 μM ≤ SC150 < 0.1 μM)
5 | COc1cc(C(N)=O)ccc1NCC#Cc1cc2c(N[C@H]3CC[C@H](N4CCOCC4)CC3)cccc2n1CC(F)(F)F [Compound 170A, 3-methoxy-4-{[3-(4-{[(1R,4R)-4-(morpholin-4-yl)cyclohexyl]amino}-1-(2,2,2-trifluoroethyl)-1H-indol-2-yl)prop-2-yn-1-yl]amino}benzamide] | + (+ = 0 μM ≤ SC150 < 0.05 μM)
6 | CNC(=O)c1ccc(NCC#Cc2cc3c(N[C@H]4CC[C@H](N(C)C)CC4)cccc3n2CC(F)(F)F)c(OCC#N)c1 [Compound 113A, 3-(cyanomethoxy)-N-methyl-4-{[3-(4-{[(1R,4R)-4-(dimethyl-amino)cyclohexyl]amino}-1-(2,2,2-trifluoro-ethyl)-1H-indol-2-yl)prop-2-yn-1-yl]amino}benzamide] | + (+ = 0 μM ≤ SC150 < 0.05 μM)
7 | COc1cc(S(C)(=O)=O)ccc1NCC#Cc1cc2c(NC3CCN(C(=O)CN(C)C)CC3)cccc2n1CC(F)(F)F [Compound 750A] | + (+ = 0 μM ≤ SC150 < 0.05 μM)
8 | CS(=O)(=O)c1ccc(NCC#Cc2cc3c(N[C@H]4CC[C@@H](N5CC6(COC6)C5)CC4)cccc3n2CC(F)(F)F)c(O)c1 [Compound 215A, 5-methanesulfonyl-2-{[3-(4-{[(1S,4S)-4-{2-oxa-6-azaspiro [3.3]heptan-6-yl}cyclo-hexyl]amino}-1-(2,2,2-trifluoroethyl)-1H-indol-2-yl)prop-2-yn-1-yl]amino}phenol] | + (+ = 0 μM ≤ SC150 < 0.05 μM)
9 | CCN1CC[C@H](Nc2cccc3c2cc(C#CCNc2ccc(C(=O)NC)cc2OC)n3CC(F)(F)F)[C@H](F)C1 [Compound 1075A, 4-{[3-(4-{[(3R,4S)-1-ethyl-3-fluoropiperidin-4-yl]amino}-1-(2,2,2-trifluoroethyl)-1H-indol-2-yl)prop-2-yn-1-yl]amino}-3-methoxy-N-methvlbenzamide] | + (+ = 0 μM ≤ SC150 < 0.05 μM)
10 | COc1cc(S(C)(=O)=O)ccc1NCC#Cc1cc2c(N[C@H]3CCN(C)C[C@H]3F)cccc2n1CC(F)(F)F (stereo in doubt) [Compound 773A, N-[(3R,4S)-3-fluoro-1-methylpiperidin-4-yl]-2-{3-[(4-methanesulfonyl-2-methoxyphenyl)amino]prop-1-yn-1-yl}-1-(2,2,2-trifluoroethyl)-1H-indol-4-amine] | + (+ = 0 μM ≤ SC150 < 0.05 μM)
11 | COc1cc(S(C)(=O)=O)ccc1NCC#Cc1cc2c(N[C@H]3CCCC[C@H]3N)cccc2n1CC(F)(F)F (racemic) [Compound 29A, rac-(1R,2S)-N^1-(2-{3-[(4-methanesulfonyl-2-methoxyphenyl)amino]prop-1-yn-1-yl}-1-(2,2,2-trifluoroethyl)-1H-indol-4-yl)cyclo-hexane-1,2-diamine] | + (+ = 0 μM ≤ SC150 < 0.05 μM)
12 | COc1cc(S(=O)(=O)N(C)C)ccc1NCC#Cc1cc2c(NC3CCS(=O)(=O)CC3)cccc2n1CC(F)(F)F [Compound 1044A, 4-[(3-{4-[(1,1-dioxo-1λ^6-thian-4-yl)amino]-1-(2,2,2-trifluoroethyl)-1H-indol-2-yl}prop-2-yn-1-yl)amino]-3-methoxy-N,N-dimethylbenzene-1-sulfonamide] | + (+ = 0 μM ≤ SC150 < 0.05 μM)
13 | COc1cc(S(C)(=O)=O)ccc1NCC#Cc1cc2c(NC3CCC(N)CC3F)cccc2n1CC(F)(F)F (stereo not shown) [Compound 37A] | + (+ = 0 μM ≤ SC150 < 0.05 μM)
14 | COc1cc(S(C)(=O)=O)ccc1NCC#Cc1cc2c(N[C@H]3CC[C@H](N4CCC(OC)CC4)CC3)cccc2n1CC(F)(F)F [Compound 350A, 2-{3-[(4-methane-sulfonyl-2-methoxy-phenyl)amino]prop-1-yn-1-yl}-N-[(1R,4R)-4-(4-methoxypiperidin-1-yl)cyclohexyl]-1-(2,2,2-trifluoroethyl)-1H-indol-4-amine] | + (+ = 0 μM ≤ SC150 < 0.05 μM)
15 | COc1cc(C(=O)O)ccc1NCC#Cc1cc2c(N[C@H]3CCN(C)C[C@@H]3F)cccc2n1CC(F)(F)F [Compound 789A, 4-{[3-(4-{[(3S,4S)-3-fluoro-1-methylpiperidin-4-yl]amino}-1-(2,2,2-trifluoroethyl)-1H-indol-2-yl)prop-2-yn-1-yl]amino}-3-methoxybenzoic acid] | ++ (++ = 0.05 μM ≤ SC150 < 0.1 μM)
16 | COc1cc(S(C)(=O)=O)ccc1NCC#Cc1cc2c(NC3CCN(C[C@H](CO)OC)CC3)cccc2n1CC(F)(F)F [Compound 629A, (2R)-3-{4-[(2-{3-[(4-methanesulfonyl-2-methoxyphenyl)amino]prop-1-yn-1-yl}-1-(2,2,2-trifluoroethyl)-1H-indol-4-yl)amino]piperidin-1-yl}-2-methoxypropan-1-ol] | + (+ = 0 μM ≤ SC150 < 0.05 μM)
17 | CN1CC[C@@H](Nc2cccc3c2cc(C#CCNC(=O)c2cnn(C(C)(C)C)c2)n3CC(F)(F)F)[C@@H](F)C1 [Compound 1066A, 1-tert-butyl-N-[3-(4-{[(3S,4R)-3-fluoro-1-methylpiperidin-4-yl]amino}-1-(2,2,2-trifluoroethyl)-1H-indol-2-yl)prop-2-yn-1-yl]-1H-pyrazole-4-carboxamide] | + (+ = 0 μM ≤ SC150 < 0.05 μM)
18 | CNS(=O)(=O)c1ccc(NCC#Cc2cc3c(N[C@H]4CC[C@H](N5CCC6(CC5)COC6)CC4)cccc3n2CC(F)(F)F)c(OC)c1 [Compound 395A, 3-methoxy-N-methyl-4-{[3-(4-{[(1R,4R)-4-{2-oxa-7-azaspiro[3.5]nonan-7-yl}cyclohexyl]amino}-1-(2,2,2-trifluoroethyl)-1H-indol-2-yl)prop-2-yn-1-yl]amino}benzene-1-sulfonamide] | + (+ = 0 μM ≤ SC150 < 0.05 μM)
19 | CN(C)[C@H]1CC[C@H](Nc2cccc3c2cc(C#CCNc2ccc(S(C)(=O)=O)cc2OCC#N)n3CC(F)(F)F)CC1 [Compound 81A, 2-(5-methanesulfonyl-2-{[3-(4-{[(1R,4R)-4-(dimethylamino)cyclohexyl]amino}-1-(2,2,2-trifluoro-ethyl)-1H-indol-2-yl)prop-2-yn-1-yl]amino}phenoxy)acetonitrile] | + (+ = 0 μM ≤ SC150 < 0.05 μM)
20 | COc1cc(S(=O)(=O)NC2CCOCC2)ccc1NCC#Cc1cc2c(NC3CCOCC3)cccc2n1CC(F)(F)F [Compound 993A, 3-methoxy-N-(oxan-4-yl)-4-[(3-{4-[(oxan-4-yl)amino]-1-(2,2,2-trifluoroethyl)-1H-indol-2-yl}prop-2-yn-1-yl)amino]benzene-1-sulfonamide] | + (+ = 0 μM ≤ SC150 < 0.05 μM)
21 | COc1cc(S(N)(=O)=O)ccc1NCC#Cc1cc2c(NC3CCN(CC(COC(=O)C(C)C)OC(=O)C(C)C)CC3)cccc2n1CC(F)(F)F (stereo not shown) [Compound 589A, 1-{4-[(2-{3-[(2-methoxy-4-sulfamoylphenyl)amino]prop-1-yn-1-yl}-1-(2,2,2-trifluoroethyl)-1H-indol-4-yl)amino]piperidin-1-yl}-3-[(2-methylpropanoyl)oxy]propan-2-yl 2-methylpropanoate] | ++ (++ = 0.05 μM ≤ SC150 < 0.1 μM)
22 | COC(=O)c1ccc(NCC#Cc2cc3c(N[C@H]4CCN(CC(=O)N(C)C)C[C@H]4F)cccc3n2CC(F)(F)F)c(OC)c1 [Compound 914A, methyl 4-{[3-(4-{[(3R,4S)-1-[(dimethylcarbamoyl)methyl]-3-fluoropiperidin-4-yl]amino}-1-(2,2,2-trifluoroethyl)-1H-indol-2-yl)prop-2-yn-1-yl]amino}-3-methoxybenzoate] | + (+ = 0 μM ≤ SC150 < 0.05 μM)
